Data from patent publication US11439607B2 (Paracelsus Neuroscience I, LLC, priority 2016, dated 2022).
Entries after “also recorded” stand apart in the source; their conditions may differ. Like-named read-outs stand apart in the source and are kept apart here.

Assays:
[1] = Rat screening pharmacokinetics: plasma, brain, CSF exposure; assay type: in vivo; conditions: Screening PK, 10 mg/kg PO; for CSF / Free Brain / Free Plasma / concentration at 1 h / concentration at 4 h: 10 mg/kg; for concentration at 1 h / concentration at 4 h: po
Description: (§1) Male Sprague-Dawley rats (Crl:SD, Charles River) weighing 200-350 g were dosed to determine tissue exposure at 10 mg/kg p.o. (n=3) for screening pharmacokinetics (PK), and at 10, 30 and 100 mg/kg p.o. for the CCI studies (n=3 from each treatment group taken from the last arm of study). […] The rats were then decapitated and trunk blood was collected to in K3EDTA containing tubes. Plasma samples were generated by centrifugation (3500×g), and stored frozen at −20° C. until bioanalysis. The brains were harvested immediately following blood collection and stored frozen until bioanalysis at −20° C. For CCI animals, the plasma and brain harvests as described for the screening PK, although the tissue collection was initiated after the behavioral assessment was completed, approximately 4 hours 15 minutes after dosing. For spinal column harvest, a 20-gauge needle on a 10 ml syringe filled with cold saline was inserted into the spinal cord. The saline was used to flush the spinal column out. The spinal column tissues were then stored frozen at −20° C. prior to exposure measurements.
(§2) Prior to analysis, the brain and spinal cord samples were thawed at room temperature, weighed and homogenized using a homogenizing solution (IPA/H2O/DMSO; 30:50:20) at a ratio of 3/1 (ml/g) to generate tissue homogenates. An aliquot of 50 μl plasma, or 50 μl brain and spinal cord homogenates is mixed with 150 μl of a DMSO/ACN (20:80) solution that contains an internal standard (50 ng/ml). The diluted plasma, brain and spinal cord sample is then centrifuged (˜500 g for 15 min at 10° C.), supernatant is removed and then injected (10 μl) onto LC/MS/MS system for analysis. An Atlantis T3 column 2.6μ C18, 50×2.1 mm (Waters, Mass.) was used for analytical separation of the acid. A 6-minute mobile phase gradient was employed with mobile phase A (0.1% formic acid in water) ramping down from 99% to 1% (0-4 minutes), and then ramping back up to 99% (4-6 minutes), while ramping up solvent B (1% formic acid in ACN), from 1% to 99% (0-4 minutes), and then ramping down to 1% (4-6 minutes). Spectra was acquired in positive SRM mode with the parent mass of 324 and a daughter ion of 228.

[2] = Plasma, brain and spinal cord exposure in CCI rats; assay type: in vivo, rat; conditions: for Kp at 4 h / concentration at 4 h: male, Sprague-Dawley, rat; for concentration at 4 h: po
Description: as §1, §2

rats = assay: Rat locomotor activity; assay type: in vivo; conditions: 4 hours after dosing
From the text: Male Sprague-Dawley rats (Charles River) weighing 225-275 g on the test day were divided into groups of 8 animals per treatment. […] Following the pre-treatment time, rats were placed into 50×25×20 cm cages lined with crushed corn cob bedding (Bed-o'Cobs ¼ inch, Andersons Lab Bedding, Maumee, Ohio, USA). The cages were positioned in a Smart Frame Cage Rack (Kinder Scientific, Poway, Calif., USA) outfitted with an infrared beam array (7 X×15 Y). Rats were allowed to move freely within the cage for 1 hour with beam breaks continuously recorded using MotorMonitor™ (Kinder Scientific,). Time course and cumulative data were analyzed with Prism 4 (GraphPad, La Jolla, Calif.). One-way ANOVA with Tukey's Multiple Comparison Post-Hoc Test was used for statistical analysis.

Carrageenan model = assay: Carrageenan - Paw pressure test; assay type: in vivo, rodent; conditions: Senicapoc 100 mg/kg PO, 240 min after treatment
Description: (§3) Depending on the test, the percentage of activity was calculated from the mean value of the vehicle-treated animals and compared to naïve animals, control paw or cut-off value.

Brennan model = Brennan model - Electronic Von Frey test; assay type: in vivo, rodent; conditions: Senicapoc 100 mg/kg PO, 240 min after treatment
Description: as §3

## NC(=O)C(c1ccccc1)(c1ccc(F)cc1)c1ccc(F)cc1 [Senicapoc]
[1]; 1 h, mean ± SD
  CSF: 25 ± 16 nM
[1]; 1 h, UBBr = 0.008
  Free Brain: 37 ± 16 nM
[1]; 1 h, UBP = 0.027
  Free Plasma: 17 ± 9 nM
[1]; 4 h, mean ± SD
  CSF: 121 ± 62 nM
[1]; 4 h, UBBr = 0.008
  Free Brain: 136 ± 50 nM
[1]; 4 h, UBP = 0.027
  Free Plasma: 65 ± 22 nM
[1]; male, Sprague-Dawley, rat, brain, 1 h, mean ± SD, read-out: Brain
  concentration at 1 h: 4660 ± 1990 nM
[1]; male, Sprague-Dawley, rat, brain, 1 h, UBBr = 0.008, read-out: Free Brain
  concentration at 1 h: 37 nM
[1]; male, Sprague-Dawley, rat, brain, 4 h, mean ± SD, read-out: Brain
  concentration at 4 h: 16900 ± 6040 nM
[1]; male, Sprague-Dawley, rat, brain, 4 h, UBBr = 0.008, read-out: Free Brain
  concentration at 4 h: 136 nM
[1]; male, Sprague-Dawley, rat, brain, 1 h, read-out: Free Brain/Free Plasma
  Kp at 1 h: 2.2
[1]; male, Sprague-Dawley, rat, brain, 4 h, read-out: Free Brain/Free Plasma
  Kp at 4 h: 2.1
[1]; male, Sprague-Dawley, rat, plasma, 1 h, mean ± SD, read-out: Plasma
  concentration at 1 h: 637 ± 322 nM
[1]; male, Sprague-Dawley, rat, plasma, 1 h, UBP = 0.027, read-out: Free Plasma
  concentration at 1 h: 17 nM
[1]; male, Sprague-Dawley, rat, plasma, 4 h, mean ± SD, read-out: Plasma
  concentration at 4 h: 2390 ± 748 nM
[1]; male, Sprague-Dawley, rat, plasma, 4 h, UBP = 0.027, read-out: Free Plasma
  concentration at 4 h: 65 nM
[1]; male, Sprague-Dawley, rat, 1 h, mean ± SD, read-out: CSF
  concentration at 1 h: 25 nM
[1]; male, Sprague-Dawley, rat, 4 h, mean ± SD, read-out: CSF
  concentration at 4 h: 121 nM
[2]; 10 mg/kg PO, 4 h, LLQ 773 nM
  Spinal Cord: <LLQ^γ
[2]; 10 mg/kg PO, 4 h, n = 1 (2 samples <LLQ 773 nM)
  Plasma: 782^£ nM
[2]; 10 mg/kg PO, 4 h, n = 1, UBP = 0.027
  Free Plasma: 21^£ nM
[2]; brain, 10 mg/kg PO, read-out: Free Brain/Free Plasma
  Kp at 4 h: 1.1 ± 0.1
[2]; brain, 30 mg/kg PO, read-out: Free Brain/Free Plasma
  Kp at 4 h: 0.9 ± 0.1
[2]; brain, 100 mg/kg PO, read-out: Free Brain/Free Plasma
  Kp at 4 h: 1 ± 0.2
[2]; brain, 10 mg/kg, 10 mg/kg PO, UBBr = 0.008, read-out: Free Brain
  concentration at 4 h: 22 ± 1 nM
[2]; brain, 10 mg/kg, 10 mg/kg PO, mean ± SD, read-out: Brain
  concentration at 4 h: 2770 ± 380 nM
[2]; brain, 30 mg/kg, 30 mg/kg PO, UBBr = 0.008, read-out: Free Brain
  concentration at 4 h: 51 ± 16 nM
[2]; brain, 30 mg/kg, 30 mg/kg PO, mean ± SD, read-out: Brain
  concentration at 4 h: 6420 ± 1960 nM
[2]; brain, 100 mg/kg, 100 mg/kg PO, UBBr = 0.008, read-out: Free Brain
  concentration at 4 h: 106 ± 21 nM
[2]; brain, 100 mg/kg, 100 mg/kg PO, mean ± SD, read-out: Brain
  concentration at 4 h: 13300 ± 2620 nM
[2]; plasma, 30 mg/kg, 30 mg/kg PO, UBP = 0.027, read-out: Free Plasma
  concentration at 4 h: 56 ± 12 nM
[2]; plasma, 30 mg/kg, 30 mg/kg PO, mean ± SD, read-out: Plasma
  concentration at 4 h: 2060 ± 452 nM
[2]; plasma, 100 mg/kg, 100 mg/kg PO, UBP = 0.027, read-out: Free Plasma
  concentration at 4 h: 103 ± 3 nM
[2]; plasma, 100 mg/kg, 100 mg/kg PO, mean ± SD, read-out: Plasma
  concentration at 4 h: 3800 ± 93 nM
[2]; spinal cord, 30 mg/kg PO, read-out: Free Spinal Cord/Free Plasma
  Kp at 4 h: 0.8 ± 0.6
[2]; spinal cord, 100 mg/kg PO, read-out: Free Spinal Cord/Free Plasma
  Kp at 4 h: 0.7 ± 0.3
[2]; spinal cord, 30 mg/kg, 30 mg/kg PO, brain free fraction 0.008 used, read-out: Free Spinal Cord
  concentration at 4 h: 38 ± 17 nM
[2]; spinal cord, 30 mg/kg, 30 mg/kg PO, mean ± SD, read-out: Spinal Cord
  concentration at 4 h: 3400 ± 2740 nM
[2]; spinal cord, 100 mg/kg, 100 mg/kg PO, brain free fraction 0.008 used, read-out: Free Spinal Cord
  concentration at 4 h: 95 ± 17 nM
[2]; spinal cord, 100 mg/kg, 100 mg/kg PO, mean ± SD, read-out: Spinal Cord
  concentration at 4 h: 11900 ± 2180 nM
rats; 30 mg/kg p.o.
  Effect on locomotor activity (total distance traveled): no effect; also recorded: did not significantly affect
rats; 100 mg/kg p.o.
  Effect on locomotor activity (total distance traveled): no effect; also recorded: did not significantly affect
Carrageenan model
  % of activity vs. vehicle: 116%
Brennan model
  % of activity vs. vehicle: −7%
